From patent publication US20240067672A1, “FLAVONE DERIVATIVE FOR TREATING TUMORS AND USE THEREOF” (SICHUAN FUSHENGYUAN TECHNOLOGY CO., LTD, priority 2019, published 2024)
Values after ≈ are worked out from the molar mass of the structure shown. Like-named read-outs stand apart in the source and are kept apart here.

Columns and labels:
SMMC7721 hepatoma cells = test: Anti-tumor activity in vitro, MTT method, SMMC7721; format: cell-based, human; conditions: for IC50 compared with Icaritin, SMMC7721 72 h: SMMC7721, 72 h after administration
Protocol: (§1) The effects of Icaritin and its derivatives on the activities of HepG2 and SMMC7721 hepatoma cells were investigated by a MTT method. […] After reaction for 48, 7 2 h, each well was added with 20 μL 5 mg/mL, of MTT solution, and incubated in a cell incubator for 3-4 h. Then the liquid in the well plates was sucked to discard. Each well was added with 150 μL of dimethyl sulfoxide (DMSO), and shaken on an enzyme-labeled instrument for 30 s at ambient temperature so that the Formazan crystals were dissolved sufficiently. The absorbance value A of each well at 570 nm was detected by the enzyme-labeled instrument, and the experiment was repeated for 3 times.

HepG2 hepatoma cells = test: Anti-tumor activity in vitro, MTT method, HepG2; format: cell-based, human; conditions: for IC50 compared with Icaritin, HepG2 72 h: HepG2, 72 h after administration; for IC50 compared with Icaritin, 48 and 72 h: HepG2 and SMMC7721, 48 and 72 h
Protocol: as §1

[1] = Determination of solubility (HPLC); format: physicochemical; conditions: for solubility: 37 °C, thermodynamic from solid
Protocol: About 1.325 mg of Icaritin and the synthesized derivative were weighed and dissolved in 1.5 mL methanol respectively, then diluted with methanol into solutions of 10, 20, 50, 100, 150, 200, 500 μg/mL, and filtered over an organic-system filter head of 0.45 μm into sample bottles, obtaining the samples for test. Four parts of Icaritin and the synthesized derivative were weighed respectively, 1.00 mg for each part, and placed into 1.5 mL EP tubes, and 1 mL of water, normal saline, PBS, and 0.1% Tween 80 were respectively added thereto. The obtained solutions were ultrasonicated for 1 h, placed in a water bath at 37° C. overnight, and centrifuged at 10000 r/min for 3 min to collect supernatants. The supernatants were taken into sample bottles and detected by HPLC. The experiments were conducted in parallel for three times. The detection of HPLC is conducted under conditions of a chromatographic column of waters Symmetry C18, a mobile phase of a solution of methanol and water with a ratio of 80:20, a flow rate of 1.0 mL/min, a column temperature of 30° C., a detection wavelength of 210 nm, a run time of 30 min, and a sample load of 20 μL.

[2] = SMMC7721, 48 h, MTT, read-out: IC50 SMMC7721 48 h
[3] = SMMC7721, 72 h, MTT, read-out: IC50 SMMC7721 72 h
[4] = HepG2, 48 h, MTT, read-out: IC50 HepG2 48 h
[5] = HepG2, 72 h, MTT, read-out: IC50 HepG2 72 h
[6] = Homo sapiens, SMMC-7721, SMMC7721, 48 h, MTT, read-out: IC50 SMMC7721 48 h
[7] = Homo sapiens, SMMC-7721, SMMC7721, 72 h, MTT, read-out: IC50 SMMC7721 72 h
[8] = Homo sapiens, HepG2, 48 h, MTT, read-out: IC50 HepG2 48 h
[9] = Homo sapiens, HepG2, 72 h, MTT, read-out: IC50 HepG2 72 h
[10] = aqueous with cosolvent or surfactant or cyclodextrin

Compound	Solubility, 0.1% Tween 80 [1]	Solubility, Normal Saline [1]	Solubility, PBS [1]	Solubility, Water [1]	IC50 (SMMC7721 hepatoma cells; [6])	IC50 (SMMC7721 hepatoma cells; [7])	IC50 compared with Icaritin, HepG2 72 h (HepG2 hepatoma cells)	IC50 (HepG2 hepatoma cells; [8])	IC50 (HepG2 hepatoma cells; [9])	solubility compared with that of the bulk drug (Icaritin) [1]	solubility ([1]; aqueous buffer)	solubility [1, 10]	solubility ([1]; water)	also measured
COc1ccc(-c2oc3c(CC=C(C)C)c(O)cc(O)c3c(=O)c2OC(=O)CCC(=O)OCCCCOCc2cn(CCOC3OC(CO)C(O)C(O)C3O)nn2)cc1 (stereo not drawn) [Compound 88]	8.384 ± 1.363 µg/mL (≈ 10.1 µM)	7.399 ± 0.384 µg/mL (≈ 8.94 µM)	Insoluble	7.597 ± 1.038 µg/mL (≈ 9.18 µM)	–	–	–	–	–	–	–	–	–	IC50 (SMMC7721 hepatoma cells; [2]): > 100 µM; IC50 (SMMC7721 hepatoma cells; [3]): 40.5 ± 1.56 µM; IC50 (HepG2 hepatoma cells; [4]): > 100 µM; IC50 (HepG2 hepatoma cells; [5]): > 100 µM
COc1ccc(-c2oc3c(CC=C(C)C)c(O)cc(O)c3c(=O)c2OC(=O)CCC(=O)OCCCCOCc2cn(CCOCCOC3OC(CO)C(O)C(O)C3O)nn2)cc1 (stereo not drawn) [Compound 89]	Insoluble	Insoluble	Insoluble	Insoluble	–	–	–	–	–	–	–	–	–	IC50 (SMMC7721 hepatoma cells; [2]): > 100 µM; IC50 (SMMC7721 hepatoma cells; [3]): 35.6 ± 1.36 µM; IC50 (HepG2 hepatoma cells; [4]): > 100 µM; IC50 (HepG2 hepatoma cells; [5]): > 100 µM
COc1ccc(-c2oc3c(CC=C(C)C)c(O)cc(O)c3c(=O)c2OC(=O)CCC(=O)OCc2cn(CCOCCO[C@H]3O[C@@H](CO)[C@H](O)[C@@H](O)[C@@H]3O)nn2)cc1 [Compound 44]	–	–	–	–	> 100 µM	> 100 µM	less than that of Icaritin	> 100 µM	10.1 ± 0.32 µM	improved effectively	11 ± 1.04 µg/mL (≈ 13.8 µM)	11.2 ± 1.09 µg/mL (≈ 14 µM)	11.3 ± 0.831 µg/mL (≈ 14.1 µM)	solubility ([1]; saline or isotonic): 11 ± 1.03 µg/mL (≈ 13.8 µM)
COc1ccc(-c2oc3c(CC=C(C)C)c(O)cc(O)c3c(=O)c2OC(=O)CCC(=O)OCCOCc2cn(C3O[C@H](CO)[C@@H](O)[C@H](O)[C@H]3O)nn2)cc1 (stereo partly drawn) [Compound 71]	Insoluble	Insoluble	Insoluble	Insoluble	–	–	–	–	–	–	–	–	–	IC50 (SMMC7721 hepatoma cells; Homo sapiens, SMMC-7721, 48 h, read-out: IC50 SMMC7721 48 h): > 100 µM; IC50 (SMMC7721 hepatoma cells; Homo sapiens, SMMC-7721, 72 h, read-out: IC50 SMMC7721 72 h): 29.7 ± 1.23 µM; IC50 (HepG2 hepatoma cells; Homo sapiens, HepG2, 48 h, read-out: IC50 HepG2 48 h): > 100 µM; IC50 (HepG2 hepatoma cells; Homo sapiens, HepG2, 72 h, read-out: IC50 HepG2 72 h): > 100 µM
COc1ccc(-c2oc3c(CC=C(C)C)c(O)cc(O)c3c(=O)c2OC(=O)CCC(=O)OCCCOCc2cn(CCO[C@H]3O[C@@H](CO)[C@H](O)[C@@H](O)[C@@H]3O)nn2)cc1 [Compound 96]	–	–	–	–	29.7 ± 1.23 µM	6.65 ± 1.29 µM	less than that of Icaritin	12 ± 0.82 µM	5.56 ± 0.8 µM	improved effectively	15.5 ± 1.31 µg/mL (≈ 19 µM)	16.8 ± 0.422 µg/mL (≈ 20.7 µM)	16.9 ± 0.462 µg/mL (≈ 20.7 µM)	IC50 compared with Icaritin, SMMC7721 72 h (SMMC7721 hepatoma cells): less than that of Icaritin; IC50 compared with Icaritin, 48 and 72 h (HepG2 hepatoma cells): less than those of Icaritin; solubility ([1]; saline or isotonic): 16.8 ± 0.313 µg/mL (≈ 20.7 µM)
COc1ccc(-c2oc3c(CC=C(C)C)c(O)cc(O)c3c(=O)c2OC(=O)CCC(=O)OCCOCCOCCOCCOCc2cn([C@H]3O[C@@H](CO)[C@H](O)[C@@H](O)[C@@H]3O)nn2)cc1 [Compound 50]	–	Insoluble	–	–	> 100 µM	46.5 ± 3.43 µM	–	24.1 ± 3.06 µM	25.3 ± 2.11 µM	–	4.53 ± 0.347 µg/mL (≈ 5.11 µM)	4.64 ± 1.27 µg/mL (≈ 5.22 µM)	4.55 ± 0.324 µg/mL (≈ 5.13 µM)	–
COc1ccc(-c2oc3c(CC=C(C)C)c(O)cc(O)c3c(=O)c2OC(=O)CCC(=O)OCCOCCOCc2cn([C@H]3O[C@@H](CO)[C@H](O)[C@@H](O)[C@@H]3O)nn2)cc1 [Compound 64]	–	Insoluble	–	–	> 100 µM	> 100 µM	–	> 100 µM	32.6 ± 3.12 µM	–	0.991 ± 0.314 µg/mL (≈ 1.24 µM)	1.08 ± 0.756 µg/mL (≈ 1.35 µM)	2.24 ± 0.941 µg/mL (≈ 2.8 µM)	–
COc1ccc(-c2oc3c(CC=C(C)C)c(O)cc(O)c3c(=O)c2OC(=O)CCC(=O)OCCN(CCOCc2cn(CCOCCO[C@H]3O[C@@H](CO)[C@H](O)[C@@H](O)[C@@H]3O)nn2)c2ccccc2)cc1 [Compound 105]	–	–	Insoluble	–	> 100 µM	9.57 ± 1.2 µM	less than that of Icaritin	15.1 ± 1.32 µM	7.69 ± 0.04 µM	improved effectively	–	23.4 ± 1.12 µg/mL (≈ 24.3 µM)	23.6 ± 1.23 µg/mL (≈ 24.5 µM)	IC50 compared with Icaritin, SMMC7721 72 h (SMMC7721 hepatoma cells): less than that of Icaritin; IC50 compared with Icaritin, 48 and 72 h (HepG2 hepatoma cells): less than those of Icaritin; solubility ([1]; saline or isotonic): 23.9 ± 0.982 µg/mL (≈ 24.9 µM)
COc1ccc(-c2oc3c(CC=C(C)C)c(O)cc(O)c3c(=O)c2OC(=O)CCC(=O)OCc2cn(CCOC3OC(CO)C(O)C(O)C3O)nn2)cc1 (stereo not drawn) [Compound 39]	13.819 ± 1.323 µg/mL (≈ 18.3 µM)	13.828 ± 1.123 µg/mL (≈ 18.3 µM)	13.825 ± 0.937 µg/mL (≈ 18.3 µM)	13.871 ± 1.031 µg/mL (≈ 18.4 µM)	–	–	less than that of Icaritin	–	–	improved effectively	–	–	–	IC50 (SMMC7721 hepatoma cells; [2]): > 100 µM; IC50 (SMMC7721 hepatoma cells; [3]): 6.65 ± 1.29 µM; IC50 compared with Icaritin, SMMC7721 72 h (SMMC7721 hepatoma cells): less than that of Icaritin; IC50 (HepG2 hepatoma cells; [4]): > 100 µM; IC50 (HepG2 hepatoma cells; [5]): 5.56 ± 0.6 µM
COc1ccc(-c2oc3c(CC=C(C)C)c(O)cc(O)c3c(=O)c2OC(=O)CCC(=O)OCCOCCOCc2cn(CCO[C@@H]3O[C@H](CO)[C@@H](O)[C@H](O)[C@H]3O)nn2)cc1 [Compound 65]	Insoluble	Insoluble	Insoluble	Insoluble	> 100 µM	> 100 µM	–	> 100 µM	37.74 ± 0.2 µM	–	–	–	–	–
COc1ccc(-c2oc3c(CC=C(C)C)c(O)cc(O)c3c(=O)c2OC(=O)CCC(=O)NCCCCCOCc2cn(C3O[C@H](CO)[C@@H](O)[C@H](O)[C@H]3O)nn2)cc1 (stereo partly drawn) [Compound 81]	Insoluble	Insoluble	Insoluble	Insoluble	> 100 µM	22.2 ± 1.45 µM	less than that of Icaritin	> 100 µM	12 ± 1.23 µM	–	–	–	–	–
COc1ccc(-c2oc3c(CC=C(C)C)c(O)cc(O)c3c(=O)c2OC(=O)CCC(=O)OCCOCc2cn(CCOCCOC3OC(CO)C(O)C(O)C3O)nn2)cc1 (stereo not drawn) [Compound 73]	Insoluble	Insoluble	Insoluble	Insoluble	–	–	–	–	–	–	–	–	–	IC50 (SMMC7721 hepatoma cells; [2]): > 100 µM; IC50 (SMMC7721 hepatoma cells; [3]): 37.2 ± 1.36 µM; IC50 (HepG2 hepatoma cells; [4]): 43.2 ± 1.21 µM; IC50 (HepG2 hepatoma cells; [5]): 36.8 ± 0.65 µM
COc1ccc(-c2oc3c(CC=C(C)C)c(O)cc(O)c3c(=O)c2OC(=O)CCC(=O)OCCN(CCOCc2cn(CCO[C@@H]3O[C@H](CO)[C@@H](O)[C@H](O)[C@H]3O)nn2)c2ccccc2)cc1 [Compound 104]	Insoluble	Insoluble	Insoluble	Insoluble	> 100 µM	12.9 ± 1.03 µM	less than that of Icaritin	> 100 µM	9.02 ± 0.27 µM	–	–	–	–	IC50 compared with Icaritin, SMMC7721 72 h (SMMC7721 hepatoma cells): less than that of Icaritin
COc1ccc(-c2oc3c(CC=C(C)C)c(O)cc(O)c3c(=O)c2OC(=O)CCC(=O)OCc2cn([C@H]3O[C@@H](CO)[C@H](O)[C@@H](O)[C@@H]3O)nn2)cc1 [Compound 35]	–	–	–	–	> 100 µM	> 100 µM	–	> 100 µM	> 100 µM	improved effectively	12 ± 1.02 µg/mL (≈ 16.8 µM)	12.1 ± 1.03 µg/mL (≈ 17 µM)	12 ± 1.23 µg/mL (≈ 16.8 µM)	solubility ([1]; saline or isotonic): 12.3 ± 1.31 µg/mL (≈ 17.3 µM)
